Source: PubChem BioAssay (NCI)
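Cultured in 96-well plates, cells were exposed to test compound for 48 hours across five concentrations. TGI: total growth inhibition.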

Columns and labels:
Assay in all cases: DTP human tumour cell line panel, 48 h
ACHN renal = system: ACHN renal
SR leukemia = system: SR leukemia
EKVX NSCLC = system: EKVX NSCLC
RPMI-8226 leukemia = system: RPMI-8226 leukemia
OVCAR-5 ovarian = system: OVCAR-5 ovarian
SW-620 colon = system: SW-620 colon
MOLT-4 leukemia = system: MOLT-4 leukemia
TK-10 renal = system: TK-10 renal
MCF7 breast = system: MCF7 breast
PC-3 prostate = system: PC-3 prostate
A498 renal = system: A498 renal

| Structure (SMILES) | TGI (ACHN renal) | TGI (SR leukemia) | TGI (EKVX NSCLC) | TGI (RPMI-8226 leukemia) | TGI (OVCAR-5 ovarian) | TGI (SW-620 colon) | TGI (MOLT-4 leukemia) | TGI (TK-10 renal) | TGI (MCF7 breast) | TGI (PC-3 prostate) | TGI (A498 renal) |
| --- | --- | --- | --- | --- | --- | --- | --- | --- | --- | --- | --- |
| COc1ccc2c(c1)CN1C(=N2)CSC1c1cccc(Br)c1 (stereo not drawn) | > 100 µM | > 100 µM | > 100 µM | 35.2 µM | > 100 µM | > 100 µM | 63.2 µM | > 100 µM | > 100 µM | > 100 µM | – |
| C=CCCON(C(=O)OC(C)(C)C)c1ccccc1 | > 100 µM | – | > 100 µM | > 100 µM | > 100 µM | > 100 µM | > 100 µM | > 100 µM | – | > 100 µM | > 100 µM |
| O=C1/C(=C/C=C/c2ccccc2)CCC1CNc1ccccc1 (stereo not drawn) | > 100 µM | > 100 µM | > 100 µM | – | > 100 µM | > 90.4 µM | > 100 µM | > 74.7 µM | 32.7 µM | > 100 µM | > 100 µM |
| COc1cc2c(cc1OCCCCCCCCCCN1C(=O)c3cccc4cccc(c34)C1=O)N=C[C@@H]1CCCN1C2=O | 30 µM | 3.84 µM | 14.4 µM | 4 µM | 61.2 µM | 19 µM | 5.76 µM | > 100 µM | 9.26 µM | 12.3 µM | – |
| CNC1(c2cc3ccccc3s2)CCCCC1 | > 100 µM | 67.3 µM | 93.8 µM | – | 95.7 µM | > 100 µM | > 100 µM | > 100 µM | 90.5 µM | 55.5 µM | > 100 µM |
| O=C1/C(=C\c2ccc([N+](=O)[O-])cc2)N(S(=O)(=O)c2ccccc2)c2ncccc21 | 31.4 µM | 20.8 µM | – | 41 µM | – | 34.2 µM | 13.5 µM | 31.9 µM | > 100 µM | 33.4 µM | – |
| O=S(Cc1ccccc1)c1nc2ccccc2nc1-c1cccs1 (stereo not drawn) | 26.9 µM | – | 60.6 µM | 68 µM | 31.9 µM | – | > 100 µM | 28 µM | – | – | – |
| C=C(C)C1CCC(C(=O)O)CC1 (stereo not drawn) | > 100 µM | – | > 100 µM | > 100 µM | > 100 µM | > 100 µM | > 100 µM | > 100 µM | > 100 µM | > 100 µM | > 100 µM |
| O=C1CS(=O)(=O)C(c2cccc(Oc3ccccc3)c2)N1c1ccc(Cl)cc1 (stereo not drawn) | 60.5 µM | 45.4 µM | 51.3 µM | – | > 100 µM | > 100 µM | 62.7 µM | 61.4 µM | 31.9 µM | 84.5 µM | – |
| CN(/N=C/c1ccc(C(=O)O)cc1)C1=NCCCCN1 | > 100 µM | > 100 µM | > 100 µM | > 100 µM | > 100 µM | – | > 100 µM | – | > 100 µM | > 100 µM | > 100 µM |
| Cc1ccc(-n2[nH]nc(C(N)=O)c2=O)cc1 | > 100 µM | – | > 100 µM | > 100 µM | > 100 µM | > 100 µM | > 100 µM | > 100 µM | > 100 µM | > 100 µM | – |
| CCOC(=O)CCC(NC(=O)c1ccc(Nc2nc3ccc(C(F)(F)F)cc3nc2-c2ccccc2)cc1)C(=O)OCC (stereo not drawn) | > 100 µM | > 100 µM | > 100 µM | > 100 µM | > 100 µM | > 100 µM | 77.8 µM | > 100 µM | > 100 µM | – | – |
| C[C@@H](C(=O)O)N1C(c2ccco2)=C(/C(C=O)=C\c2ccco2)C(=O)/C1=C\c1ccco1 | > 100 µM | – | > 100 µM | > 100 µM | > 100 µM | > 100 µM | > 100 µM | > 100 µM | > 100 µM | > 100 µM | > 100 µM |
| COc1ccc2nc(N/N=C/c3sccc3C)cc(C)c2c1 | 56.2 µM | – | 55.4 µM | 45.3 µM | 61.3 µM | 65 µM | 50.7 µM | 28.1 µM | 55.5 µM | 38.7 µM | 26.9 µM |
| CC1(C)OCN(c2ccc(N3CCOCC3)cc2)Cn2c1nc1ccccc12 | > 100 µM | 92.7 µM | > 100 µM | 86.6 µM | – | > 100 µM | > 100 µM | > 100 µM | – | – | > 100 µM |
| C=C1C(=O)OC2/C=C(\C(=O)O)CC/C=C(\C)CC(OC(=O)/C=C(\C)CC)C12 (stereo not drawn) | 46.2 µM | > 100 µM | 59.3 µM | > 100 µM | 26.6 µM | 31.3 µM | > 100 µM | > 100 µM | – | – | 32 µM |
| Cc1cccc(Cl)c1NCC(O)CN1CCN(C)CC1 (stereo not drawn) | > 100 µM | > 100 µM | > 100 µM | – | > 100 µM | > 100 µM | > 100 µM | > 100 µM | – | > 100 µM | > 100 µM |
| COC(=O)[C@@H]1C=C[C@H](OC2OC(COC(C)=O)C(OC(C)=O)C(OC(C)=O)C2OC(C)=O)n2c(=O)n(-c3ccccc3)c(=O)n21 (stereo partly drawn) | 3.17 µM | > 24.9 µM | 11.2 µM | 6.05 µM | 12.6 µM | 3.41 µM | 5.19 µM | 3.74 µM | – | 7.67 µM | 20 µM |
| O=S(=O)(O)c1ccc(N=Nc2ccc3c(S(=O)(=O)O)cccc3c2O)c2ccccc12 | > 100 µM | – | > 100 µM | > 100 µM | > 100 µM | > 100 µM | – | > 100 µM | > 100 µM | > 100 µM | > 100 µM |
| CC12C=CC(C)(C3C(=O)C4C(C(=O)C31)C1(C)C=CC4(C)S1=O)S2=O (stereo not drawn) | > 100 µM | – | > 100 µM | – | > 100 µM | – | – | > 100 µM | – | > 100 µM | – |
| O=C(NC1=C(Cl)C(=O)c2ccccc2C1=O)c1ccccc1 | 40 µM | > 100 µM | > 100 µM | > 100 µM | > 100 µM | 33.4 µM | 58.8 µM | 52.5 µM | 39.2 µM | > 100 µM | – |
| N#C[S-].[La+3].c1cnc2c(c1)ccc1cccnc12.c1cnc2c(c1)ccc1cccnc12.c1cnc2c(c1)ccc1cccnc12 | 12.9 µM | 8.8 µM | 15.5 µM | > 100 µM | 12.4 µM | 27.1 µM | 6.55 µM | 25.4 µM | – | – | 13.5 µM |
| Cc1nc2ccc(Br)cc2c(=O)n1-c1nnc(C(C)(C)C)s1 | > 10 µM | > 10 µM | > 10 µM | > 10 µM | > 10 µM | > 10 µM | > 10 µM | > 10 µM | > 10 µM | > 10 µM | – |
